Data as given in US7951928B2, “Gene encoding a protein and preventive/remedy for neurodegenerative diseases such as polyglutamine diseases by utilizing the same” (Tokyo Medical and Dental University, priority 2004, dated 2011).

Columns and labels:
[1] = tested on: YAP; experiment: Northern blotting of YAP expression after AMA; type: cell-based, rat; conditions: transcription stage
Procedure: Next, in order to clarify the molecular mechanism underlying the OP (omega process), we performed microarray analysis. Expression of genes associated with AMA-induced cellular death of cortical neurons and cerebellar neurons and expression of genes associated with low-potassium-induced apoptosis of cerebellar neuron were compared. Experiment was performed twice for each type of cellular death. This microarray analysis led to the identification of 8 genes that offered different expression levels both in apoptosis and OP, and 11 genes that offered different expression levels specifically in OP. The latter set of genes contained YAP, a transcriptional activation factor (coactivator) which is known to play a key role in p73-mediated apoptosis.
Ten micrograms of total RNA extracted from the primary cultured neurons was electrophoresed on a MOPS/formaldehyde gel. The separated RNA fragments were transferred and immobilized to Hybond-N (Pharmacia) by UV cross-linking (exposure dose=120,000 μJ/cm^2). The full-length cDNA with the 61nt insert was cleaved from pBSins61 and purified by passing it through a gel and labeled with [a32P]dCTP (Amersham) using Random Primer DNA-labeling kit (Takara). The probes labeled with 32P were reacted with a nylon film at 60° C. and allowed to stand overnight for permeation. […]

[2] = tested on: primary cultured cortical neurons; experiment: Measurement of uptake of BrU (transcription) in AMA-treated cortical neurons; type: cell-based, rat; conditions: three different concentrations of AMA
[3] = tested on: primary cultured cerebellar neurons; experiment: Measurement of uptake of BrU (transcription) in AMA-treated cerebellar neurons; type: cell-based, rat; conditions: three different concentrations of AMA
Procedure: (§1) First, solutions containing three different concentrations of AMA were added to culture media of Hela cells, primary cultured cortical neurons of rat embryo (E15), and primary cultured cerebellar neurons of rat. […] The AMA-induced cellular death was significant particularly in the primary cultured neurons and their half-life period was five days or more—the primary cultured neurons died obviously earlier than those that had not been treated with AMA. […] In this AMA-induced cellular death, neuronal cell death progressed very slowly as compared with low-potassium-induced apoptosis of cerebellar neurons.
A cerebral cortical tissue segregated from E17 Wistar rat embryo and a cerebellar tissue segregated from P7 Wistar rat novelborn were shredded with a razor, and treated with a phosphate buffered saline (hereinafter referred to as “PBS”; pH 7.5) containing 0.25% trypsin (Gibco) at 37° C. for 20 min, with gentle shaking every 5 min. Subsequently, the reaction was quenched by replacing the PBS with DMEM containing a 50% fetal bovine serum (hereinafter referred to as “FBS”), and DNaseI (Boehringer Mannheim) was added to a final concentration of 100 μg/ml. The tissues were segregated gently by pipetting with a blue tip. […]

[4] = tested on: primary cultured neurons; experiment: AMA-induced cellular death of primary cultured neurons (Trypan Blue cellular death assay); type: cell-based, rat
Procedure: as §1
A cerebral cortical tissue segregated from E17 Wistar rat embryo and a cerebellar tissue segregated from P7 Wistar rat novelborn were shredded with a razor, and treated with a phosphate buffered saline (hereinafter referred to as “PBS”; pH 7.5) containing 0.25% trypsin (Gibco) at 37° C. for 20 min, with gentle shaking every 5 min. Subsequently, the reaction was quenched by replacing the PBS with DMEM containing a 50% fetal bovine serum (hereinafter referred to as “FBS”), and DNaseI (Boehringer Mannheim) was added to a final concentration of 100 μg/ml. The tissues were segregated gently by pipetting with a blue tip. The cells were filtrated through a nylon mesh (FALCON, pore size: […]) by centrifuge for precipatation and resuspended in DMEM additionally containing 20 mM glucose, 16 mM sodium hydrogen carbonate, 4 mM glutamine, 25 μg/ml gentamicin and 10% FBS. The suspension was added into a polylysine-coated 24-well plate (Corning) and the cells were cultured so that each well has 3×10^5 cells. After 12 hours, cytosine arabinoside was added to the culture wells to a final concentration of […] in order to prevent glial cell proliferation. […]
The cells were treated for 5 min with 0.4% Trypan Blue solution (Invitrogen). […] In these spots the numbers of blue-stained cells (dead cells) and non-stained cells (living cells) were counted to a total of at least 2,000.

[5] = tested on: cell line and primary neurons; experiment: Genome DNA analysis for DNA ladders after AMA treatment; type: cell-based; conditions: genome DNA analysis of the cell line and primary neurons after AMA treatment
[6] = tested on: Hela cells; experiment: AMA-induced cellular death of Hela cells; type: cell-based; conditions: AMA-treated Hela cells
Procedure: as §1
The cells were treated for 5 min with 0.4% Trypan Blue solution (Invitrogen). In each experiment, 10-20 spots were randomly selected from each of the three dishes at 100× magnification. In these spots the numbers of blue-stained cells (dead cells) and non-stained cells (living cells) were counted to a total of at least 2,000.

SMILES: CC[C@H](C)[C@@H]1NC(=O)CNC(=O)[C@@H]2Cc3c([nH]c4cc(O)ccc34)[S+]([O-])C[C@@H](NC(=O)CNC1=O)C(=O)N[C@@H](CC(N)=O)C(=O)N1C[C@H](O)C[C@H]1C(=O)N[C@@H]([C@@H](C)[C@@H](O)CO)C(=O)N2 (stereo in doubt) [AMA, α-amanitin]
- YAP expression [1]: down-regulated YAP expression
- transcription (uptake of BrU) [2]: suppressed transcription
- transcription (uptake of BrU) [3]: suppressed transcription
- concentration dependence of cellular death rate ([4]; AMA 10 μg/ml to 250 μg/ml): dependent on AMA concentration
- cellular death (proportion of living cells) ([4]; AMA-treated neurons): induces progressive cellular death
- time before half the population of the neural cells died (half-life period) ([4]; neuronal cells treated with α-amanitin): ≥ 120 h
- DNA ladders [5]: no DNA ladders were observed
- cellular death (proportion of living cells) [6]: induces progressive cellular death
